According to publication PMC9653733, “Characterization of a Potent, Selective, and Safe Inhibitor, Ac15(Az8)2, in Reversing Multidrug Resistance Mediated by Breast Cancer Resistance Protein (BCRP/ABCG2)” (International Journal of Molecular Sciences, 2022):
Several values for one entry are separate records, joined by “and”; a condition that tells them apart may be missing. Equal entries are not always repeated.

Legend:
[1] = system: S1M180 cells; experiment: Cytotoxicity of anticancer drugs in S1M180 (0.1% DMSO); assay type: cell-based, human
Procedure: In total, 6500 cells of S1M180 or MCF7-MX100 were incubated with various doses of topotecan or DOX and modulators. The final volume in each well of 96-well plates was 200 µL. The plates were then incubated for 5 days at 37 °C. The CellTiter 96 AQueous Assay (Promega) was used to measure cell proliferation. According to the manufacturer’s instructions, MTS (2 mg/mL) and PMS (0.92 mg/mL) were mixed in a ratio of 20:1. An aliquot (10 μL) of the freshly prepared MTS/PMS mixture was added into each well, and the plate was incubated for 2 h at 37 °C. Optical absorbance at 490 nm was then recorded with microplate absorbance reader (Bio-Rad). IC50 values were calculated from the dose-response curves of MTS assays (Prism 4.0).

[2] = target: T1, BCRP (S1M180 cells) (Homo sapiens, UniProt Q9UNQ0, R482G); experiment: Drug accumulation assay in S1M180; assay type: cell-based; settings: 20 µM DOX, 1 h; p < 0.001
T1 construct: endogenous in cells; host or cells: S1M180 (human colon carcinoma, mitoxantrone-selected)
T1 sequence (Q9UNQ0 1-655 R482G): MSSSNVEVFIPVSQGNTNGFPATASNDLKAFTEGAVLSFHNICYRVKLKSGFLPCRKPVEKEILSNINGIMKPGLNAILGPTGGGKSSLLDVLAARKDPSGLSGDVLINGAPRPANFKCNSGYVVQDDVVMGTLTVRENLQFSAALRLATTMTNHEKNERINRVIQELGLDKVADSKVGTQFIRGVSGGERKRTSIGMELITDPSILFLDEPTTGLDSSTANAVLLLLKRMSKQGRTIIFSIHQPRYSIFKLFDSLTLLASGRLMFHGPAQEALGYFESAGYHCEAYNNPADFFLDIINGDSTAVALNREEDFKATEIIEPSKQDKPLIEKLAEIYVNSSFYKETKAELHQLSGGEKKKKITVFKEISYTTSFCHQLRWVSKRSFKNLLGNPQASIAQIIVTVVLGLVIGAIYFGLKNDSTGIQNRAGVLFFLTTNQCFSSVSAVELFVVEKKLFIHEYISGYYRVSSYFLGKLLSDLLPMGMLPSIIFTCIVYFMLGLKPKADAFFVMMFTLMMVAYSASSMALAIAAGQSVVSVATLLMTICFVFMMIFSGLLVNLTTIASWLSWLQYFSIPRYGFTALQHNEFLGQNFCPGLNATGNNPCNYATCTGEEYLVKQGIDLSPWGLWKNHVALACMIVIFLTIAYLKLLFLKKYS
Procedure: Figure 2 Effect of Ac15(Az8)2 on intracellular accumulation of BCRP-substrates in S1 and S1M180 cells. Cells were pre-treated with 0.1% DMSO, 100 nM, or 1000 nM Ac15(Az8)2 and then incubated with BCRP substrates. (A) Topotecan accumulation. (B) DOX accumulation. The intracellular level of drug after treatment was normalized to that of S1 cells after incubating with 0.1% DMSO. Student unpaired two-tailed t-test was conducted as indicated (** p < 0.01, *** p < 0.001). (C) To measure DOX efflux, S1M180 cells were pre-incubated with medium containing 20 μM DOX for 1 h at 37 °C. Cells were then washed and further incubated with or without 1 µM of Ac15(Az8)2. At 0, 5, 10, 30, 60, 120, and 180 min, the cells were harvested to measure the intracellular DOX level. (D) To determine intracellular Ac15(Az8)2 concentration, 1 × 10^7 cells were incubated with 1 µM of Ac15(Az8)2 at 37 °C for 2 h. Cells were then washed with ice-cold PBS. To the cell pellet, acetonitrile was added to lyse the cells, and the supernatant was saved for Ac15(Az8)2 determination using UPLC–MS/MS.
Briefly, 1 × 10^6 cells of S1 and S1M180 cells were pre-incubated with 100 nM or 1000 nM Ac15(Az8)2 for 2 h and followed by 50 µM of topotecan or 20 µM of DOX for 1-h incubation. DMSO at 0.1% was used as a negative control. After incubation, the cells were spun down and washed with cold PBS, pH7.4 for 2 times and lysed with 100 μL of lysis buffer (0.75 M HCl, 0.2% Triton-X100 in isopropanol) with vigorous vortex. The lysate was further incubated at 37 °C for 20 min. After incubation, the lysate was spun down, and 100 μL of supernatant was saved and seeded into a black 96-well microtiter plate. The fluorescence level of DOX was determined by a fluorescence microplate reader (BMG Technologies) using excitation and an emission wavelength pair of 460 nm and 610 nm.

[3] = system: S1 cells; experiment: Cytotoxicity of anticancer drugs in parental S1 (0.1% DMSO); assay type: cell-based, human
[4] = system: MRP1 (2008/MRP1 cells); settings: mean ± S.D.; ref [42]; read-out: EC50 needed for reversing MRP1-mediated DOX resistance, 2008/MRP1; cited from earlier work
[5] = system: L929; settings: normal mouse fibroblast cells; mean ± S.D.; ref [42]; read-out: IC50 towards L929; cited from earlier work
[6] = system: BCRP (MCF7-MX100 cells); settings: concentration reducing IC50 of anticancer drug by half; mean ± S.D.; ref [42]; read-out: EC50 needed for reversing BCRP-mediated topotecan resistance, MCF7-MX100; cited from earlier work

DOX accumulation in S1M180, fold less than parental S1 [2] [fold] | SMILES | IC50 ([1]; Homo sapiens, S1-M1-80, S1M180 + 0.1% DMSO, mean ± S.D., n = 3, read-out: IC50 of DOX) [µM] | RF (Relative Fold), DOX ([1]; S1M180 + 0.1% DMSO (reference)) | IC50 ([3]; Homo sapiens, S1 + 0.1% DMSO, mean ± S.D., n = 3, read-out: IC50 of DOX) [µM] | RF (Relative Fold), DOX: resistance of S1M180 compared to parental S1 ([3]; S1 + 0.1% DMSO vs S1M180 + 0.1% DMSO) | EC50 [4] [µM] | IC50 [5] | EC50 [6] [µM]
~4.6 | COc1cccc2c1C(=O)c1c(O)c3c(c(O)c1C2=O)C[C@@](O)(C(=O)CO)C[C@@H]3O[C@H]1C[C@H](N)[C@H](O)[C@H](C)O1 [DOX, doxorubicin] | 13.4 | 1.0 | 0.1 ± 0.02 | 133.7 | – | – | –
– | COc1ccc2c3c([nH]c2c1)[C@H](CC(C)C)N1C(=O)[C@H](CCC(=O)OC(C)(C)C)NC(=O)[C@@H]1C3 [Ko143, reference compound] | – | – | – | – | 1.95 ± 0.354 | 29 µM and 29.2 µM | […]
